Measurements published in US20090317364A1, “NOVEL COMPOSITIONS FOR PREVENTION AND TREATMENT OF MASTITIS AND METRITIS” (priority 2006, published 2009).

Assays:
Staphylococcus. aureus [1] = assay: Lab trials 2a (in vitro) for synergy, components added in wells for diffusion; type: cell-based
Excerpt: a) Lab trials 2a (in vitro) for synergy.

Staphylococcus. aureus [2] = assay: Lab trials 2b (in vitro) for synergy, components added on top of the culture; type: cell-based
Excerpt: b) Lab trials 2b (in vitro) for synergy.

Peptidoglycan N-acetylmuramoylhydrolase [Lysozyme]
Inhibition zone diameter In cm for Staphylococcus. aureus (Staphylococcus. aureus [1]): 1.15 cm
Inhibition zone In diameter cm for Staphylococcus. aureus (Staphylococcus. aureus [2]): 1.1 cm
